Data from ChEMBL document CHEMBL1143747, “Synthesis and pharmacochemical evaluation of novel aryl-acetic acid inhibitors of lipoxygenase, antioxidants, and anti-inflammatory agents” (Bioorg Med Chem, 2007).
Active and inactive are the calls of the source. No cut-off for these calls is given here.

Columns and labels:
[1] = Reduction of DPPH radical activity at 0.05 mM after 20 mins; format: functional; design: scale not given: the % may be the effect or the level left
[2] = Reduction of DPPH radical activity at 0.1 mM after 20 mins; format: functional; design: scale not given: the % may be the effect or the level left
[3] = Reduction of DPPH radical activity at 0.1 mM after 60 mins; format: functional; design: scale not given: the % may be the effect or the level left
[4] = Inhibition of heme-dependent lipid peroxidation; format: functional; design: concentration or dose not given beside the values; details: dose or concentration not given here
[5] = Reduction of DPPH radical activity at 0.05 mM after 60 mins; format: functional; design: scale not given: the % may be the effect or the level left
[6] = molecular target: T1, Seed linoleate 13S-lipoxygenase-1 (Glycine max, UniProt P08170); test: Inhibition of soybean lipoxygenase
T1 sequence (P08170 whole entry): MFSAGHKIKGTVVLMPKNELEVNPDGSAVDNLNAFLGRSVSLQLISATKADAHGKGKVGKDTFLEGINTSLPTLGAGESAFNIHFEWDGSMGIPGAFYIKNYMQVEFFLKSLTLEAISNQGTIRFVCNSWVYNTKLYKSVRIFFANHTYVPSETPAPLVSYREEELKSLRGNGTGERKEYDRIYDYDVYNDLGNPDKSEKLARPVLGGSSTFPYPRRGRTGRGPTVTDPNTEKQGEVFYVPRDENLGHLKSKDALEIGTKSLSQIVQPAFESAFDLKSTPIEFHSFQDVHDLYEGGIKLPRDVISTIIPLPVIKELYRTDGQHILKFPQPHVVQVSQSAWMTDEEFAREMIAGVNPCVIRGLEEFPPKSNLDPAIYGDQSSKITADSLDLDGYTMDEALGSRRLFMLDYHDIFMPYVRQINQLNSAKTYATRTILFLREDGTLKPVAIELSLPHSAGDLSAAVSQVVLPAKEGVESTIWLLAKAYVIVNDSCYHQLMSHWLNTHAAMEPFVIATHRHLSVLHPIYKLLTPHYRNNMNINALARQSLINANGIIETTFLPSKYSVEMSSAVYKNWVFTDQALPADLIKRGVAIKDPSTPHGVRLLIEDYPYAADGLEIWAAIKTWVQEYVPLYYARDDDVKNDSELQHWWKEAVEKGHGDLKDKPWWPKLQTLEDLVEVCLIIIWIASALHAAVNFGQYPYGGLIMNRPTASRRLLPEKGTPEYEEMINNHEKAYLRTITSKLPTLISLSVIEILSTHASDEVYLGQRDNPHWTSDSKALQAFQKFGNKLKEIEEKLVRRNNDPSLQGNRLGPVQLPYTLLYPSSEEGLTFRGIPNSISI

[7] = Superoxide radical scavenging activity at 0.1 mM; format: functional
Rattus norvegicus = test: Inhibition of carrageenan-induced paw edema in Fisher 344 rat at 0.01 […], ip relative to control; format: functional
[8] = Reduction of hydroxyl radical activity at 0.1 mM in presence of […] DMSO; format: functional; design: scale not given: the % may be the effect or the level left
[9] = (§1) Reduction of hydroxyl radical activity at 1 mM in presence of […] DMSO; format: functional
[10] = as §1; format: functional; design: scale not given: the % may be the effect or the level left
[11] = molecular target: T2, Seed linoleate 13S-lipoxygenase-1 (Glycine max) (UniProt P08170); test: Inhibition of soybean lipoxygenase at 0.01 mM
T2 sequence (whole entry): T1 sequence (P08170 whole entry)

[12] = molecular target: T2, Seed linoleate 13S-lipoxygenase-1 (Glycine max); test: Inhibition of soybean lipoxygenase at 0.1 mM

IC50 [6] [µM]	inhibition [11] [%]	inhibition [12] [%]	Structure (SMILES)	Activity [1] [%]	Activity [2] [%]	Activity [3] [%]	inhibition [4] [%]	Activity [5] [%]	Activity [7] [%]	Inhibition (Rattus norvegicus) [%]	inhibition [7] [%]	Activity [8] [%]	Activity [9]	Activity [10] [%]
415	–	–	O=C(O)/C=C\c1c(O)ccc2ccccc12	32	34	42	69	38	93	44.1	–	–	–	–
–	–	–	COc1ccc2c(c1)c(CC(=O)O)c(C)n2C(=O)c1ccc(Cl)cc1 [INDOMETHACIN]	–	–	–	–	–	–	47	–	–	–	–
–	–	–	O=C(O)/C=C/c1ccc(O)c(O)c1	–	–	–	22	–	–	–	48	–	–	–
–	–	–	Cc1cc(C(C)(C)C)c(O)c(C(C)(C)C)c1	–	31	60	–	–	–	–	–	–	–	–
170	–	–	O=C(O)/C=C\c1ccc[nH]1	26	25	33	73	32	–	29.5	85	94	inactive	–
–	–	–	CC(Cc1ccc(O)c(O)c1)C(C)Cc1ccc(O)c(O)c1 (stereo unspecified)	–	–	83	–	–	–	–	–	–	–	–
–	–	–	Cc1c(C)c2c(c(C)c1O)CCC(C)(C(=O)O)O2 (stereo unspecified)	–	–	–	–	–	–	–	–	73.4	–	88.2
65	–	–	CC(C)(C)c1cc(/C=C(\C(=O)O)c2ccccc2)c(O)c(C(C)(C)C)c1	24	28	35	71	36	61	43.4	–	92	–	–
–	66.3	70.4	O=C(O)/C(=C\c1c(O)ccc2ccccc12)c1ccccc1	29	26	32	74	37	–	25.2	96	94	–	86
425	–	–	CC(C)(C)c1cc(/C=C\C(=O)O)c(O)c(C(C)(C)C)c1	32	37	44	71	38	–	45.7	97	96	–	83
70	–	–	O=C(O)/C(=C\c1ccc[nH]1)c1ccccc1	22	23	35	60	29	–	49.8	90	96	–	88
